# From ChEMBL document CHEMBL1201862, “PubChem BioAssay data set” (2004)
#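 Protocol summary: plate cells (96-well), add compound at 5 concentrations, incubate 48 h, interpolate endpoints linearly. The concentration for 50% growth inhibition is given as GI50.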 Calls of active or inactive are those of the source. Cut-off read from the data, not from the text of the source: active = GI50 up to about 1.1 µM and inactive = higher. Where a SMILES comes first, the peptide text is derived from it. Non-standard residues stand in square brackets, D forms with d. Residues, ends and D or L forms follow the SMILES beside them. The star is where a group is joined. *: point of attachment. Benzoyl(4-OMe) = COc1ccc(C(=O)*)cc1; 2Thi = N[CH](Cc1cccs1)C(=O)O; Cbz = O=C(OCc1ccccc1)*
# Columns and labels:
# Experiment in all cases: growth of human tumour cells (NCI), 48 h
# 786-0 = tested on: 786-0
# A549 = tested on: A549
# EKVX = tested on: EKVX
# HCT-15 = tested on: HCT-15
# HOP-62 = tested on: HOP-62
# K562 = tested on: K562
# MCF7 = tested on: MCF7
# MDA-MB-231 = tested on: MDA-MB-231
# MOLT-4 = tested on: MOLT-4
# NCI-H522 = tested on: NCI-H522
# NCI/ADR-RES = tested on: NCI/ADR-RES
# OVCAR-4 = tested on: OVCAR-4
# PC-3 = tested on: PC-3
# RPMI-8226 = tested on: RPMI-8226
# SF-539 = tested on: SF-539
# SK-MEL-28 = tested on: SK-MEL-28
# SK-OV-3 = tested on: SK-OV-3
# SW-620 = tested on: SW-620
# UACC-62 = tested on: UACC-62
# SK-MEL-2 = tested on: SK-MEL-2
SMILES,GI50 (786-0),GI50 (A549),GI50 (EKVX),GI50 (HCT-15) [µM],GI50 (HOP-62),GI50 (K562),GI50 (MCF7),GI50 (MDA-MB-231),GI50 (MOLT-4),GI50 (NCI-H522),GI50 (NCI/ADR-RES),GI50 (OVCAR-4),GI50 (PC-3),GI50 (RPMI-8226),GI50 (SF-539),GI50 (SK-MEL-28),GI50 (SK-OV-3),GI50 (SW-620),GI50 (UACC-62),GI50 (SK-MEL-2)
COC(=O)[C@]1(C)CCCC2(C)C3=C(CCC21)CC1(CC3)SCCS1 (stereo partly drawn),> 10 µM (inactive),> 10 µM (inactive),> 10 µM (inactive),> 10,> 10 µM (inactive),> 10 µM (inactive),> 10 µM (inactive),> 10 µM (inactive),> 10 µM (inactive),> 10 µM (inactive),> 10 µM (inactive),> 10 µM (inactive),> 10 µM (inactive),> 10 µM (inactive),> 10 µM (inactive),> 10 µM (inactive),> 10 µM (inactive),> 10 µM (inactive),> 10 µM (inactive),–
CCC(C)C(NC(=O)C(Cc1cccs1)NC(=O)C(CC(C)C)NC(=O)C(CC(C)C)NC(=O)C(CCCCN)NC(=O)C(CCCNC(=N)N)NC(=O)c1ccc(OC)cc1)C(=O)NC(CC(C)C)C(N)=O (stereo not drawn) ({Benzoyl(4-OMe)}-RKLL[2Thi]IL-NH2; configuration not given here),> 100 µM (inactive),> 100 µM (inactive),> 100 µM (inactive),> 100,> 100 µM (inactive),> 100 µM (inactive),> 100 µM (inactive),> 100 µM (inactive),> 100 µM (inactive),> 100 µM (inactive),> 100 µM (inactive),> 100 µM (inactive),> 100 µM (inactive),> 100 µM (inactive),> 100 µM (inactive),> 100 µM (inactive),> 100 µM (inactive),> 100 µM (inactive),> 100 µM (inactive),–
COC1OC(C)C(NC(=O)OCC(Cl)(Cl)Cl)C2OC(C)(C)OC12 (stereo not drawn),> 100 µM (inactive),> 100 µM (inactive),> 100 µM (inactive),> 100,> 100 µM (inactive),> 100 µM (inactive),> 100 µM (inactive),> 100 µM (inactive),> 100 µM (inactive),> 100 µM (inactive),> 100 µM (inactive),> 100 µM (inactive),> 100 µM (inactive),> 100 µM (inactive),> 100 µM (inactive),> 100 µM (inactive),> 100 µM (inactive),> 100 µM (inactive),> 100 µM (inactive),–
CCOC(=O)CCC(NC(=O)CNC(=O)CNC(=O)C(CCC(=O)OCC)NC(=O)C(CCC(=O)OCC)NC(=O)C(CCC(=O)OCC)NC(=O)OCc1ccccc1)C(=O)NC(CCC(=O)OCC)C(=O)NC(CCC(=O)OCC)C(=O)OCC (stereo not drawn) (Cbz-E(OEt)E(OEt)E(OEt)GGE(OEt)E(OEt)E(OEt)-OEt; configuration not given here),> 75 µM (inactive),> 75 µM (inactive),> 75 µM (inactive),> 75,–,–,> 75 µM (inactive),> 75 µM (inactive),> 75 µM (inactive),> 75 µM (inactive),> 75 µM (inactive),> 75 µM (inactive),> 75 µM (inactive),> 75 µM (inactive),–,> 75 µM (inactive),> 75 µM (inactive),> 75 µM (inactive),> 75 µM (inactive),> 75 µM (inactive)
O=C(NCCCl)NCc1ccccc1,> 100 µM (inactive),> 100 µM (inactive),> 100 µM (inactive),> 100,> 100 µM (inactive),> 100 µM (inactive),> 100 µM (inactive),> 100 µM (inactive),> 100 µM (inactive),> 100 µM (inactive),> 100 µM (inactive),> 100 µM (inactive),> 100 µM (inactive),> 100 µM (inactive),–,> 100 µM (inactive),> 100 µM (inactive),> 100 µM (inactive),> 100 µM (inactive),> 100 µM (inactive)
